ChEMBL document CHEMBL4359822, “Design, synthesis of 4,5-diazafluorene derivatives and their anticancer activity via targeting telomeric DNA G-quadruplex” (Eur J Med Chem, 2019)
Activity calls are given as the source filed them.

Tests used:
Format in all cases: functional, cell-based
AGS = assay: Antiproliferative activity against human AGS cells at 10 uM incubated for 36 hrs by CCK8 assay
MCF7 = assay: Antiproliferative activity against human MCF7 cells at 10 uM incubated for 36 hrs by CCK8 assay
HepG2 = assay: Antiproliferative activity against human HepG2 cells at 10 uM incubated for 36 hrs by CCK8 assay
A549 = assay: Antiproliferative activity against human A549 cells at 10 uM incubated for 36 hrs by CCK8 assay

Measured: growth inhibition (GI)

Fc1ccc(-c2nn(Cc3ccccc3)cc2C=C2c3cccnc3-c3ncccc32)cc1
active: all assays above

Clc1ccc(-c2nn(Cc3ccccc3)cc2C=C2c3cccnc3-c3ncccc32)cc1
active: all assays above

Cc1ccc(-c2nn(-c3ccc([N+](=O)[O-])cc3[N+](=O)[O-])cc2C=C2c3cccnc3-c3ncccc32)cc1
active: all assays above

O=[N+]([O-])c1ccc(-n2cc(C=C3c4cccnc4-c4ncccc43)c(-c3ccc(Br)cc3)n2)c([N+](=O)[O-])c1
active: all assays above

Brc1ccc(-c2n[nH]cc2C=C2c3cccnc3-c3ncccc32)cc1
active: all assays above

O=C1C(=C2c3cccnc3-c3ncccc32)SC(=S)N1Cc1nnc(-c2ccc(Cl)cc2)o1
active: all assays above

O=C(O)CN1C(=O)C(=C2c3cccnc3-c3ncccc32)SC1=S
active: all assays above

O=[N+]([O-])c1ccc(-n2cc(C=C3c4cccnc4-c4ncccc43)c(-c3ccc(Cl)cc3)n2)c([N+](=O)[O-])c1
active: all assays above

Brc1ccc(-c2nn(Cc3ccccc3)cc2C=C2c3cccnc3-c3ncccc32)cc1
active: all assays above
